Residue numbers refer to the chain shown, from its start. Read-outs that look alike come from different tables or passages of the source.
What was measured:
[1] = molecular target: T1, AHCY D86G (Homo sapiens, UniProt P23526, D86G); test: Differential Scanning Fluorimetry (DSF), thermal unfolding; type: binding; settings: for TM = Temperature at the midpoint of protein unfolding transition: No NAD^+: 49,55; for ΔTm at 100 µM: read-out: ΔTM (midpoint of thermal unfolding shifted by)
T1 construct: made in house; host or cells: E. coli DH5a (with or without GroESL co-expression)
T1 sequence (P23526 1-432 D86G): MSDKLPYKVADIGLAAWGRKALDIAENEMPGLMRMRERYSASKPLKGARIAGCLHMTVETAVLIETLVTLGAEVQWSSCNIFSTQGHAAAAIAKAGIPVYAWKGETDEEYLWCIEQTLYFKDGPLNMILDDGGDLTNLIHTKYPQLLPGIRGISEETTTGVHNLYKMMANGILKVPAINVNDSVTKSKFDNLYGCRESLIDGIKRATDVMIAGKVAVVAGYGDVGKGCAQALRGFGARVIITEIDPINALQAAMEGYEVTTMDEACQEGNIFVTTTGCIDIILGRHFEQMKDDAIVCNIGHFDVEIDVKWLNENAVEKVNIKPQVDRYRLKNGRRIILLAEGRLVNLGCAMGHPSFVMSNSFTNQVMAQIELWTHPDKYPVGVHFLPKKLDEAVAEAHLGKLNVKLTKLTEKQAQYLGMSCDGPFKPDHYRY
Description: (§1) The potential of the binding of NAD^+ or an analogue of NAD^+ to the NAD^+ binding site and of the binding of an analogue of a substrate of AHCY to the substrate binding site of AHCY in stabilizing the enzyme and its activity was analyzed by use of Differential Scanning Fluorimetry (DSF). The following substrates were tested in the given concentrations:
(§2) The following five mutant proteins were selected for testing: • R49C, D86G, Y143C, A89V and Y379C.
(§3) Fluorescence measurements were carried out on a 7900 HT fast real-time PCR System (Applied Biosystems, Thermo Fisher Scientific Inc. USA). The data was recorded in Abi Prism SDS software. Samples contained AHCY-Maltose-Binding Protein fusion proteins, HEPES, and SYPRO Orange fluorescence dye (SYPRO® Orange Protein Gel Stain from Invitrogen, Thermo Fisher Scientific Inc. USA) in a 1:1000 dilution), which binds to exposed hydrophobic sites of unfolded proteins. For this dye, the wavelengths used for excitation and emission are 492 nm, respectively 610 nm. The assay was measured in quadruplicates on a 96-well PCR plate. Thermal denaturation was monitored by following the changes in SYPRO Orange fluorescence emission (excitation at 492 nm, emission at 610 nm). The measurement was performed in a 25 °C to 75 °C range, at a rate of 2 °C/min. Thermal denaturation curves were obtained by the plotting of fluorescence intensities against temperature and TM values as the midpoint of the protein-unfolding transition were calculated using the Boltzmann sigmoidal non-linear regression function in GraphPad Prism (GraphPad Prism 5.0, GraphPad Software Inc. USA). All measurements were corrected for background reduction of SYPRO Orange fluorescence. To analyze the stabilizing effect of different compounds different concentrations of NAD^+, NAD^+ analogues and substrate analogues were added to the samples. Significances between wild-type and mutated apoenzymes and holoenzymes with stabilizing agents were calculated by one-way analysis of variance followed by Dunnett's post test (GraphPad Prism 5.0, GraphPad Software Inc. USA).
(§4) DSF is an excellent means to monitor global thermal unfolding events by probing the accessibility of the fluorescent dye Sypro Orange to hydrophobic groups within a protein. DSF was used in order to assess whether mutated AHCY proteins can be stabilized by various compounds at increasing temperatures. The stabilizing effect was evaluated by comparison of the unfolding transition midpoints (fraction unfolded = 0.5) as an operative measure of protein stability and by graphical analysis of the thermal denaturation curves. The midpoint of thermal unfolding of wild-type AHCY was shifted by an average of 2.27 °C towards higher temperatures by NAD^+ and NAD^+ analogues.

[2] = tested on: AHCY wild-type and mutated AHCY proteins; test: Differential Scanning Fluorimetry (DSF), statements over the panel of proteins; type: binding, human; settings: wild-type and/or mutated AHCY proteins, 1-100 µM or 5-100 µM
[3] = molecular target: T2, AHCY R49C (Homo sapiens, UniProt P23526, R49C); test: Differential Scanning Fluorimetry (DSF), thermal unfolding; type: binding; settings: for TM = Temperature at the midpoint of protein unfolding transition: No NAD^+: 49,84
T2 construct: made in house; host or cells: E. coli DH5a (with or without GroESL co-expression)
T2 sequence (P23526 1-432 R49C): T1 sequence (P23526 1-432 D86G) with R49C, G86D
Description: as §1, §2, §3, §4

[4] = molecular target: T3, AHCY A89V (Homo sapiens, UniProt P23526, A89V); test: as above; type: binding; settings: for TM = Temperature at the midpoint of protein unfolding transition: No NAD^+: 50,29
T3 construct: made in house; host or cells: E. coli DH5a (with or without GroESL co-expression)
T3 sequence (P23526 1-432 A89V): T1 sequence (P23526 1-432 D86G) with G86D, A89V
Description: as §1, §2, §3, §4

[5] = molecular target: T4, AHCY Y143C (Homo sapiens, UniProt P23526, Y143C); test: as above; type: binding; settings: No NAD^+: 49,34
T4 construct: made in house; host or cells: E. coli DH5a (with or without GroESL co-expression)
T4 sequence (P23526 1-432 Y143C): T1 sequence (P23526 1-432 D86G) with G86D, Y143C
Description: as §1, §2, §3, §4

[6] = molecular target: T5, AHCY Y379C (Homo sapiens, UniProt P23526, Y379C); test: as above; type: binding; settings: No NAD^+: 50,01
T5 construct: made in house; host or cells: E. coli DH5a (with or without GroESL co-expression)
T5 sequence (P23526 1-432 Y379C): T1 sequence (P23526 1-432 D86G) with G86D, Y379C
Description: as §1, §2, §3, §4

[7] = molecular target: T6, wild-type AHCY (Homo sapiens, UniProt P23526); test: as above; type: binding; settings: for TM = Temperature at the midpoint of protein unfolding transition: Wt, No NAD^+: 51,98
T6 construct: made in house; host or cells: E. coli DH5a (with or without GroESL co-expression)
Description: as §1, §3, §4

T6 sequence (P23526 whole entry): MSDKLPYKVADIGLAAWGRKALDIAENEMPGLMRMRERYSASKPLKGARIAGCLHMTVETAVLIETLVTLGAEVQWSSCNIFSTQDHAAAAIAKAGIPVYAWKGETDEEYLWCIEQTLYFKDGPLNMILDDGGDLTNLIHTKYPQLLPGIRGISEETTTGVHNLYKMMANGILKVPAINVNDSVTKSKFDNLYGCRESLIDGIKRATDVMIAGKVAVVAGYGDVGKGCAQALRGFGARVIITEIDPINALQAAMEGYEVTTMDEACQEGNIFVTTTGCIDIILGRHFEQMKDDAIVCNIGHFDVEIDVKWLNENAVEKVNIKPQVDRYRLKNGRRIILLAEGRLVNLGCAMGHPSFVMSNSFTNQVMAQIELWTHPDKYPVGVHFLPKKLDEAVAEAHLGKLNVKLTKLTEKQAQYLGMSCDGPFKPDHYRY

## Nc1nccc2c1ncn2[C@@H]1C=C(CO)[C@@H](O)[C@H]1O [DZNep, 3-Deazaneplanocin A]
[1]; D86G, concentration not given
  increase in TM (stabilizing the unfolding by): 11.18 °C
[1]; read-out: ΔTM
  ΔTm at 10 µM: 13.5 °C

## NC(=O)c1ccc[n+]([C@@H]2O[C@H](COP(=O)([O-])OP(=O)(O)OC[C@H]3O[C@@H](n4cnc5c4ncn4ccnc54)[C@H](O)[C@@H]3O)[C@@H](O)[C@H]2O)c1 [E-NAD^+, nicotinamide 1,N^6-ethenoadenine dinucleotide]
[2]
  stabilizing effect on thermal stability (in words): considerable stabilization
[3]; concentration not given
  ΔTM (increase in TM): 4.36 °C

## NC(=O)c1ccc[n+]([C@@H]2O[C@H](COP(=O)([O-])OP(=O)(O)OC[C@H]3O[C@@H](n4cnc5c(N)ncnc54)[C@H](O)[C@@H]3O)[C@@H](O)[C@H]2O)c1 [NAD^+, nicotinamide adenine dinucleotide]
[2]
  stabilizing effect on thermal stability (in words): very good effects
[3]; 5 µM
  TM = Temperature at the midpoint of protein unfolding transition: 51,48
[3]; 11 µM
  TM = Temperature at the midpoint of protein unfolding transition: 52,55
[3]; 100 µM
  TM = Temperature at the midpoint of protein unfolding transition: 52,75
[1]; D86G, 5 µM
  TM = Temperature at the midpoint of protein unfolding transition: 51,88
[1]; D86G, 11 µM
  TM = Temperature at the midpoint of protein unfolding transition: 53,51
[1]; D86G, 100 µM
  TM = Temperature at the midpoint of protein unfolding transition: 54,02
[1]
  ΔTm at 100 µM: 4.47 °C
[4]; 5 µM
  TM = Temperature at the midpoint of protein unfolding transition: 51,97
[4]; 11 µM
  TM = Temperature at the midpoint of protein unfolding transition: 53,52
[4]; 100 µM
  TM = Temperature at the midpoint of protein unfolding transition: 54,59
[5]; 5 µM
  TM = Temperature at the midpoint of protein unfolding transition: 50,62
[5]; 11 µM
  TM = Temperature at the midpoint of protein unfolding transition: 52,36
[5]; 100 µM
  TM = Temperature at the midpoint of protein unfolding transition: 52,17
[6]; 5 µM
  TM = Temperature at the midpoint of protein unfolding transition: 51,31
[6]; 11 µM
  TM = Temperature at the midpoint of protein unfolding transition: 52,45
[6]; 100 µM
  TM = Temperature at the midpoint of protein unfolding transition: 52,48
[7]; AHCY wild-type, 100 µM, read-out: stabilized the unfolding transition by (shift of TM)
  ΔTm at 100 µM: 2.34 °C
[7]; 5 µM
  TM = Temperature at the midpoint of protein unfolding transition: 52,24
[7]; 11 µM
  TM = Temperature at the midpoint of protein unfolding transition: 53,99
[7]; 100 µM
  TM = Temperature at the midpoint of protein unfolding transition: 54,32

## NC(=S)c1ccc[n+]([C@@H]2O[C@H](COP(=O)([O-])OP(=O)(O)OC[C@H]3O[C@@H](n4cnc5c(N)ncnc54)[C@H](O)[C@@H]3O)[C@@H](O)[C@H]2O)c1 [S-NAD^+, thionicotinamide adenine dinucleotide]
[2]
  stabilizing effect on thermal stability (in words): improved resistance against thermal stress
[1]; D86G, 100 µM
  ΔTm at 100 µM: 6.7 °C

## C=C1CCC[C@H]2[C@](C)(CC3=C(O)C(=O)C=C(OC)C3=O)[C@@H](C)CC[C@]12C [ilimaquinone]
[4]; concentration not given
  shifting the midpoint of thermal unfolding by: 8.9 °C

## NC(=O)c1ncn([C@@H]2O[C@H](CO)[C@@H](O)[C@H]2O)n1 [ribavirin, 1-[(2R,3R,4S,5R)-3,4-dihydroxy-5-(hydroxymethyl)oxolan-2-yl]-1H-1,2,4-triazole-3-carboxamide]
[2]
  stabilizing effect on thermal stability (in words): good stabilizing effect

— EP3187180A1, “ADENOSYLHOMOCYSTEINASE BINDING SUBSTANCES FOR MEDICAL USE” (Ludwig-Maximilians-Universität München, priority 2015, dated 2017)
